Active and inactive are the calls of the source. The calls are words filed in the database; no cut-off is given here.
Columns and labels:
[1] = test system: Mus musculus; test: The effective dose of compound was tested against maximal electroshock induced seizures after intraperitoneal administration.; format: functional; details: ip
[2] = test system: Mus musculus; test: The effective dose of compound was tested against subcutaneous administered Metrazol induced seizures after intraperitoneal administration.; format: functional
[3] = organism: Mus musculus; test: (§1) Time of peak effect activity against maximal electroshock induced seizures; format: ADME, organism-based; details: in vivo
[4] = organism: Mus musculus; test: Median hypnotic dose by loss of righting reflex.; format: functional
[5] = test system: Mus musculus; test: The compound was tested for anticonvulsant activity against (subcutaneous administered) Metrazol induced seizures after intraperitoneal administration; format: functional
[6] = Median lethal dose was measured after 24 hr.; format: organism-based; details: mouse, in vivo
[7] = test system: Mus musculus; test: The effective dose of compound was tested against maximal electroshock induced seizures after oral administration in mice.; format: functional
[8] = organism: Mus musculus; test: Time of peak effect toxicity against maximal electroshock induced seizures; format: organism-based; details: in vivo
[9] = test system: Rattus norvegicus; test: The effective dose of compound was tested against maximal electroshock induced seizures after oral administration in rat.; format: functional
[10] = test system: Rattus norvegicus; test: The effective dose of compound was tested against subcutaneous administered Metrazol induced seizures in rat.; format: functional; details: sc
[11] = test system: Mus musculus; test: The effective dose of compound was tested against subcutaneous administered Metrazol induced seizures in mice; format: functional; details: sc
[12] = test system: Mus musculus; test: Anticonvulsant activity against maximal electroshock induced seizures (MES) after 0.5 hr at 300 mg/kg; Active; format: functional, organism-based; design: dose 300 mg/kg
[13] = test system: Mus musculus; test: Anticonvulsant activity against maximal electroshock induced seizures (MES) after 4 hr at 300 mg/kg; Active; format: functional, organism-based; design: dose 300 mg/kg
[14] = test system: Mus musculus; test: Anticonvulsant activity against subcutaneous administered Metrazol induced seizures (scMET) after 0.5 hr at 30 mg/kg; Active; format: functional, organism-based; design: dose 30 mg/kg
[15] = test system: Mus musculus; test: Anticonvulsant activity against subcutaneous administered Metrazol induced seizures (scMET) after 4 hr at 300 mg/kg; Active; format: functional, organism-based; design: dose 300 mg/kg
[16] = organism: Mus musculus; test: as §1; format: functional
[17] = organism: Mus musculus; test: Median hypnotic dose by loss of righting reflex; format: functional
[18] = test system: Mus musculus; test: The compound was tested for anticonvulsant activity against (subcutaneous administered) bicuculline induced seizures after intraperitoneal administration; format: functional
[19] = test system: Mus musculus; test: The effective dose of compound (given orally) was tested against subcutaneous administered Metrazol induced seizures in mice; format: functional
[20] = test system: Mus musculus; test: The effective dose of compound was tested against maximal electroshock induced seizures after intraperitoneal administration; format: functional; details: ip
[21] = test system: Mus musculus; test: The compound was tested for anticonvulsant activity against (subcutaneous administered) strychnine induced seizures after intraperitoneal administration; format: functional
[22] = organism: Mus musculus; test: Median lethal dose was measured after 24 hr; format: functional
[23] = test system: Mus musculus; test: The effective dose of compound was tested against maximal electroshock induced seizures after oral administration in mice; format: functional
[24] = test system: Mus musculus; test: The Neurologic toxicity by measuring rotarod test after 0.5 h; No toxicity up to 300 mg/kg; format: organism-based; design: dose 300 mg/kg; details: in vivo
[25] = test system: Mus musculus; test: The Neurologic toxicity by measuring rotarod test after 4 hr; No toxicity up to 300 mg/kg; format: organism-based; design: dose 300 mg/kg; details: in vivo
[26] = The cytotoxicity (given orally) […] in mice; format: organism-based; details: mouse, in vivo
[27] = The cytotoxicity after intraperitoneal administration; format: organism-based; details: mouse, in vivo, ip
[28] = test system: Rattus norvegicus; test: The effective dose of compound (given orally) was tested against subcutaneous administered Metrazol induced seizures in rat; format: functional
[29] = test system: Rattus norvegicus; test: The effective dose of compound was tested against maximal electroshock induced seizures after oral administration in rat; format: functional
[30] = The cytotoxicity (given orally) […] in rat; format: organism-based; details: in vivo
[31] = test system: Mus musculus; test: Anticonvulsant activity against subcutaneous picrotoxin induced seizures after intraperitoneal administration; format: functional
[32] = Ratio of LD50/HD50 was determined; format: functional
[33] = Protective index was calculated (TD50/ED50) in MES assay in mice after intraperitoneal administration; format: functional
[34] = Protective index was calculated (TD50/ED50) in MES assay in rat after oral administration; format: functional
[35] = Protective index was calculated (TD50/ED50) in scMET assay in mice after intraperitoneal administration; format: functional
[36] = Protective index was calculated (TD50/ED50) in scMET assay in mice after oral administration; format: functional
[37] = Protective index was calculated (TD50/ED50) in scMET assay in rat after oral administration; format: functional
[38] = Protective index was calculated (TD50/ED50) in MES assay in mice after oral administration; format: functional
[39] = test system: Mus musculus; test: Anticonvulsant activity against maximal electroshock induced seizures after 4 hr; Not active up to 300 mg/kg.; format: functional, organism-based; design: dose 300 mg/kg
[40] = test system: Mus musculus; test: Anticonvulsant activity against subcutaneous administered Metrazol induced seizures (scMET) after 0.5 hr; Not active up to 300 mg/kg; format: functional, organism-based; design: dose 300 mg/kg
[41] = test system: Mus musculus; test: Anticonvulsant activity against subcutaneous administered Metrazol induced seizures (scMET) after 4 hr up to 300 mg/kg; format: functional, organism-based; design: dose 300 mg/kg
[42] = test system: Mus musculus; test: The Neurologic toxicity by measuring rotarod test after 0.5 h up to 300 mg/kg; format: functional, organism-based; design: dose 300 mg/kg
[43] = test system: Mus musculus; test: The Neurologic toxicity by measuring rotarod test after 4 hr up to 300 mg/kg; format: functional, organism-based; design: dose 300 mg/kg
[44] = test system: Mus musculus; test: The compound was tested for anticonvulsant activity against (subcutaneous administered) Metrazol induced seizures after intraperitoneal administration; No protection up to 100 mg/kg; format: functional, organism-based; design: dose 100 mg/kg
[45] = test system: Mus musculus; test: The compound was tested for anticonvulsant activity against (subcutaneous administered) bicuculline induced seizures after intraperitoneal administration; Protected at 100 mg/ kg; format: functional, organism-based; design: dose 100 mg/ kg
[46] = test system: Mus musculus; test: The effective dose of compound was tested against subcutaneous administered Metrazol induced seizures after intraperitoneal administration; Not effective; format: functional, organism-based
[47] = test system: Rattus norvegicus; test: The effective dose of compound was tested against subcutaneous administered Metrazol induced seizures in rat; Not effective; format: functional, organism-based
[48] = in vivo; details: rat, ip
[49] = organism: Mus musculus; test: (§2) Time of peak effect was determined for toxicity; format: functional
[50] = test system: Rattus norvegicus; test: (§3) The cytotoxicity after intraperitoneal administration in rat.; format: functional; details: ip
[51] = organism: Mus musculus; test: Time of peak effect was determined for activity in MES; format: functional; design: unit not given here
[52] = test system: Mus musculus; test: Anticonvulsant activity against maximal electroshock induced seizures (MES) after 0.5 h; Not active up to 300 mg/kg; format: functional, organism-based; design: dose 300 mg/kg
[53] = test system: Mus musculus; test: Anticonvulsant activity against subcutaneous administered Metrazol induced seizures (scMET) after 0.5 hr at 300 mg/kg; Active; format: functional, organism-based; design: dose 300 mg/kg
[54] = test system: Mus musculus; test: The effective dose of compound was tested against maximal electroshock induced seizures after intraperitoneal administration; Not active up to 300 mg/kg; format: functional, organism-based; design: dose 300 mg/kg
[55] = test system: Mus musculus; test: The effective dose of compound was tested against subcutaneous administered Metrazol induced seizures after intraperitoneal administration; format: functional
[56] = Protective index was calculated (TD50/ED50) in scMet assay in mice after intraperitoneal administration; format: functional
[57] = test system: Mus musculus; test: The Neurologic toxicity by measuring rotarod after 4 hr; No toxicity up to 300 mg/kg; format: organism-based; design: dose 300 mg/kg; details: in vivo
[58] = test system: Mus musculus; test: The effective dose of compound was tested against subcutaneous administered Metrazol induced seizures after intraperitoneal administration;NE=Not effective; format: functional, organism-based
[59] = organism: Mus musculus; test: as §2; format: organism-based; design: unit not given here; details: in vivo
[60] = test system: Rattus norvegicus; test: The effective dose of compound was tested against subcutaneous administered Metrazol induced seizures in rat; NE=Not effective; format: functional, organism-based
[61] = as §3; format: organism-based; details: in vivo, ip

CCC1(C)CC(=O)NC1=O (stereo not given) [ETHOSUXIMIDE]
ED50 [1]: > 1000 mg/kg
ED50 [2]: 130 mg/kg
Activity [3]: 0.5
HD50 [4]: 850.61 mg/kg
ED50 [5]: 130 mg/kg
LD50 at 24 h [6]: 1750 mg/kg
ED50 [7]: > 2000 mg/kg
Time of peak effect [8]: 0.5
ED50 [9]: > 1200 mg/kg
ED50 [10]: 54 mg/kg
ED50 [11]: 192 mg/kg

O=C1CCC(Cc2ccc(Cl)cc2)C(=O)N1 (stereo not given)
Activity [12]: Active
Activity [13]: Active
Activity [14]: Active
Activity [15]: Active
ED50 [2]: 72.8 mg/kg
TPE [16]: 0.5
HD50 [17]: 1282.47 mg/kg
ED50 [5]: 72.8 mg/kg
ED50 [18]: 249 mg/kg
ED50 [19]: 274 mg/kg
ED50 [20]: 137 mg/kg
ED50 [21]: 232 mg/kg
LD50 [22]: > 2400 mg/kg
ED50 [23]: 579 mg/kg
Toxicity [24]: No toxicity up to 300 mg/kg
TPE [8]: 1
Toxicity [25]: No toxicity up to 300 mg/kg
TD50 [26]: > 3000 mg/kg
TD50 [27]: 1220 mg/kg
ED50 [28]: 36.4 mg/kg
ED50 [29]: 58.3 mg/kg
TD50 [30]: 68.2 mg/kg
ED50 [31]: 158 mg/kg
Ratio [32]: > 1.87
Ratio [33]: 8.95
Ratio [34]: 1.17
Ratio [35]: 16.82
Ratio [36]: >10.95
Ratio [37]: 1.87
Ratio [38]: >5.18

O=C1CCC(Cc2ccccc2)C(=O)N1 (stereo not given)
Activity [12]: Active
Activity [39]: inactive
Activity [40]: inactive
Activity [41]: inactive
Toxicity [42]: inactive
Toxicity [43]: inactive

NC(=O)N1c2ccccc2C=Cc2ccccc21 [CARBAMAZEPINE]
TPE [16]: 0.25
HD50 [17]: 172.24 mg/kg
ED50 [44]: inactive
ED50 [45]: Active
LD50 [22]: 629 mg/kg
ED50 [46]: inactive
TPE [8]: 0.25
ED50 [29]: 8.5 mg/kg
ED50 [47]: inactive
TD50 [48]: 813 mg/kg

CCC1(c2ccccc2)C(=O)NC(=O)NC1=O [PHENOBARBITAL]
Activity [16]: 1 h
HD50 [4]: 135.45 mg/kg
TPE [49]: 0.5
LD50 at 24 h [6]: 265 mg/kg
Time of peak effect [8]: 0.5 h
ED50 [50]: 61.1 mg/kg
TPE [51]: 1

O=C1CCC(Cc2ccc(I)cc2)C(=O)N1 (stereo not given)
Activity [52]: inactive
Activity [39]: inactive
Activity [53]: Active
Activity [15]: Active
ED50 [54]: Not active up to 300 mg/kg
ED50 [55]: 87.2 mg/kg
Toxicity [24]: No toxicity up to 300 mg/kg
Toxicity [25]: No toxicity up to 300 mg/kg
TD50 [27]: > 1050 mg/kg
Ratio [56]: >12.04
TPE [51]: 1

COc1ccc(CC2CCC(=O)NC2=O)cc1 (stereo not given)
Activity [52]: inactive
Activity [39]: inactive
Activity [40]: inactive
Activity [15]: Active
Toxicity [24]: No toxicity up to 300 mg/kg
Toxicity [57]: No toxicity up to 300 mg/kg

O=C1NC(=O)C(c2ccccc2)(c2ccccc2)N1 [PHENYTOIN]
ED50 [58]: inactive
Activity [16]: 2 h
HD50 [4]: 178.34 mg/kg
TPE [59]: 2
LD50 at 24 h [6]: 230 mg/kg
Time of peak effect [8]: 2 h
ED50 [60]: inactive
TPE [51]: 2
TD50 [61]: > 3000 mg/kg

— ChEMBL document CHEMBL1124722, “Synthesis and anticonvulsant activity of 2-benzylglutarimides” (J Med Chem, 1990)
